Experimental data reported in patent US10968203B2, “Pyrimidinyl-pyridyloxy-naphthyl compounds and methods of treating IRE1-related diseases and disorders” (Genentech, Inc., priority 2017, dated 2021).
Where a name gives a salt, the structure may show the parent alone.

test system: XBP1s-luc 293 LUC; assay: cellular PD assay, XBP1s-LUC reporter (Example 903); type: cell-based; conditions: Table 2; hydrochloride; read-out: XBP1s-luc 293 LUC (IC50)
Procedure: Inhibition of IRE1α RNase activity was determined in an enzyme assay that measured cleavage of the XBP1 stem loop by autophosphorylated IRE1α. This assay format was chosen to ensure that inhibitors of either the IRE1α kinase or the RNase domains would be identified. Binding to the ATP pocket and inhibition of IRE1α kinase activity are not necessarily required to inhibit the RNase activity. Compounds were also profiled in cellular assays by direct measurement of XBP s (B-DNA assay) or by quantification of the luciferase signal in HT1080 XBP1-Luc, which carries a luciferase fusion that is only in frame and expressed from the spliced XBP1 transcript.
Biological activity of Formula I or I′ compounds was measured by an IRE1 biochemical binding assay (Example 901), a biochemical RNase assay (Example 902), a cellular PD assay, XBP1s-LUC reporter (Example 903), and an IRE1α-based inhibition of multiple myeloma (MM) cell proliferation assay.
All of the exemplary Formula I or I′ compounds in Tables 1 and 2 were made and characterized by LCMS [M+H]^+ (liquid chromatography mass spectroscopy) with detection of parent ion. All of the exemplary Formula I compounds in Tables 1 and 2 were prepared according to the procedures of the Schemes, General Procedures, and Examples. All of the exemplary Formula I or I′ compounds in Tables 1 and 2 were tested for binding to IRE1 (inositol requiring enzyme 1 alpha) and biological activity according to the assays and protocols of Example 901-903. Exemplary Formula I or I′ compounds in Tables 1 and 2 have the following structures, corresponding IUPAC names (ChemBioDraw, Version 12.0.2, CambridgeSoft Corp., Cambridge Mass.), and biological activity. Where more than one name is associated with a Formula I or I′ compound or intermediate in Tables 1 and 2 and the Experimental Procedures, the chemical structure shall define the compound. Assignment of configuration at chiral centers in separated stereoisomers may be tentative, and depicted in Tables 1 and 2 structures for illustrative purposes, before stereochemistry is definitively established, such as from x-ray crystallographic data. In some cases, stereoisomers are separated and tested for biological activity before the stereochemistry of the separated stereoisomers is determined; and stereochemistry in some instances was inferred based on structure-activity relationship (SAR) knowledge from previous compounds. In some cases, the compounds are tested as racemic or diastereomeric mixtures. Where more than one potency value is entered on a row, separated stereoisomers represented by the structure and name on that row were tested. Exemplary compounds of Formula I or I′ in Table 3 can be prepared using methods known in the art or according to procedures similar to those described in the Schemes, General Procedures, and Examples 101-500. Biological activities of compounds in Table 3 can be tested in biological assays, for example, those in Examples 901, 902 and 903 described herein.

| SMILES | IC50 [nM] |
| --- | --- |
| Cc1ccc2c(NS(=O)(=O)CC(C)C(F)(F)F)c(F)ccc2c1Oc1ncccc1-c1ccnc(N[C@H]2CCCNC2)n1 (single isomer, unassigned) [Example 455, hydrochloride] | 18 |

same assay, conditions: Table 2; read-out: XBP1s-luc 293 LUC (IC50)

| SMILES | IC50 [nM] |
| --- | --- |
| CO[C@@H](C)CS(=O)(=O)Nc1c(F)ccc2c(Oc3ncccc3-c3ccnc(N[C@H]4CCCNC4)n3)c(C)ccc12 (single isomer, unassigned) [Example 393, hydrochloride] | 76 |
| CO[C@H](C)CS(=O)(=O)Nc1c(F)ccc2c(Oc3ncccc3-c3ccnc(N[C@H]4CCCNC4)n3)c(C)ccc12 (single isomer, unassigned) [Example 394, hydrochloride] | 28 |
| Cc1ccc2c(N[C@@H]3CCC[C@H]3O)cccc2c1Oc1ncccc1-c1ccnc(N[C@H]2CCCNC2)n1 (single isomer, unassigned) [Example 395, hydrochloride] | 109 |
| Cc1ccc2c(N[C@H]3CCC[C@@H]3O)cccc2c1Oc1ncccc1-c1ccnc(N[C@H]2CCCNC2)n1 (single isomer, unassigned) [Example 396, hydrochloride] | 270 |
| Cc1ccc2c(N3CCC(O)C3)cccc2c1Oc1ncccc1-c1ccnc(N[C@H]2CCCNC2)n1 (single isomer, unassigned) [Example 408] | 470 |
| Cc1ccc2c(NC[C@@H](C)C#N)cccc2c1Oc1ncccc1-c1ccnc(N[C@H]2CCCNC2)n1 (single isomer, unassigned) [Example 414, hydrochloride] | 59 |
| Cc1ccc2c(NC[C@H](C)C#N)cccc2c1Oc1ncccc1-c1ccnc(N[C@H]2CCCNC2)n1 (single isomer, unassigned) [Example 415, hydrochloride] | 269 |
| Cc1ccc2c(NS(=O)(=O)C[C@@H]3CCCO3)c(F)ccc2c1Oc1ncccc1-c1ccnc(N[C@H]2CCCNC2)n1 (single isomer, unassigned) [Example 416, hydrochloride] | 105 |
| Cc1ccc2c(NS(=O)(=O)C[C@H]3CCCO3)c(F)ccc2c1Oc1ncccc1-c1ccnc(N[C@H]2CCCNC2)n1 (single isomer, unassigned) [Example 417, hydrochloride] | 74 |
| Cc1ccc2c(NS(=O)(=O)Cc3ccccc3)c(F)ccc2c1Oc1ncccc1-c1ccnc(N[C@@H]2CNC[C@@H](F)C2)n1 (single isomer, unassigned) [Example 418, hydrochloride] | 2 |
| Cc1ccc2c(NCC(C#N)C(C)C)cccc2c1Oc1ncccc1-c1ccnc(N[C@H]2CCCNC2)n1 (single isomer, unassigned) [Example 422] | 83 |
| Cc1ccc2c(NS(=O)(=O)CCC(F)(F)F)c(F)ccc2c1Oc1ncccc1-c1ccnc(N[C@@H]2CNC[C@@H](F)C2)n1 (single isomer, unassigned) [Example 432, hydrochloride] | 28 |
| Cc1ccc2c(NC(=O)CC(O)C(F)(F)F)cccc2c1Oc1ncccc1-c1ccnc(N[C@H]2CCCNC2)n1 (single isomer, unassigned) [Example 435] | 338 |
| Cc1ccc2c(NC(=O)C[C@@H](O)C(F)(F)F)cccc2c1Oc1ncccc1-c1ccnc(N[C@H]2CCCNC2)n1 (single isomer, unassigned) [Example 436] | 75 |
| Cc1ccc2c(NS(=O)(=O)CC(F)(F)F)c(F)ccc2c1Oc1ncccc1-c1ccnc(N[C@@H]2CNC[C@@H](F)C2)n1 (single isomer, unassigned) [Example 444, hydrochloride] | 19 |
| Cc1ccc2c(N[C@@H]3CCCC[C@H]3O)cccc2c1Oc1ncccc1-c1ccnc(N[C@H]2CCCNC2)n1 (single isomer, unassigned) [Example 446, hydrochloride] | 67 |
| Cc1ccc2c(N[C@H]3CCCC[C@@H]3O)cccc2c1Oc1ncccc1-c1ccnc(N[C@H]2CCCNC2)n1 (single isomer, unassigned) [Example 447, hydrochloride] | 146 |
| Cc1ccc2c(NS(=O)(=O)CC(C)C(F)(F)F)c(F)ccc2c1Oc1ncccc1-c1ccnc(N[C@H]2CCCNC2)n1 (single isomer, unassigned) [Example 454, hydrochloride] | 24 |
| Cc1ccc2c(NC[C@H](O)C(C)C)cccc2c1Oc1ncccc1-c1ccnc(N[C@H]2CCCNC2)n1 (single isomer, unassigned) [Example 461, hydrochloride] | 42 |

| SMILES | IC50 [nM] |
| --- | --- |
| Cc1ccc2c(NCC(O)C(C)C)cccc2c1Oc1ncccc1-c1ccnc(N[C@H]2CCCNC2)n1 (single isomer, unassigned) [Example 462, hydrochloride] | 110 |
| Cc1ccc2c(NS(=O)(=O)Cc3ccccc3F)c(F)ccc2c1Oc1ncccc1-c1ccnc(N[C@H]2CNC[C@H](F)C2)n1 (single isomer, unassigned) [Example 463, hydrochloride] | 268 |
| Cc1ccc2c(NS(=O)(=O)Cc3ccccc3F)c(F)ccc2c1Oc1ncccc1-c1ccnc(N[C@@H]2CNC[C@@H](F)C2)n1 (single isomer, unassigned) [Example 464, hydrochloride] | 4 |
| Cc1cc(CS(=O)(=O)Nc2c(F)ccc3c(Oc4ncccc4-c4ccnc(N[C@@H]5CNC[C@@H](F)C5)n4)c(C)ccc23)no1 (single isomer, unassigned) [Example 468, hydrochloride] | 10 |
| Cc1ccc2c(NC[C@H](O)C(F)(F)F)cccc2c1Oc1ncccc1-c1ccnc(N[C@@H]2CNC[C@@H](F)C2)n1 (single isomer, unassigned) [Example 469, hydrochloride] | 5 |
| Cc1ccc2c(NS(=O)(=O)C[C@@H]3CCC3(F)F)c(F)ccc2c1Oc1ncccc1-c1ccnc(N[C@H]2CCCNC2)n1 (single isomer, unassigned) [Example 470, hydrochloride] | 24 |
| Cc1ccc2c(NS(=O)(=O)C[C@H]3CCC3(F)F)c(F)ccc2c1Oc1ncccc1-c1ccnc(N[C@H]2CCCNC2)n1 (single isomer, unassigned) [Example 471, hydrochloride] | 17 |
| Cc1ccc2c(NS(=O)(=O)C[C@@H]3CC34CC4)c(F)ccc2c1Oc1ncccc1-c1ccnc(N[C@H]2CCCNC2)n1 (single isomer, unassigned) [Example 473, hydrochloride] | 76 |
| Cc1ccc2c(NS(=O)(=O)C[C@H]3CC34CC4)c(F)ccc2c1Oc1ncccc1-c1ccnc(N[C@H]2CCCNC2)n1 (single isomer, unassigned) [Example 474, hydrochloride] | 52 |
| Cc1ccc2c(NC[C@H](O)C(F)F)cccc2c1Oc1ncccc1-c1ccnc(N[C@H]2CCCNC2)n1 (single isomer, unassigned) [Example 475, hydrochloride] | 19 |
| Cc1ccc2c(NC[C@@H](O)C(F)F)cccc2c1Oc1ncccc1-c1ccnc(N[C@H]2CCCNC2)n1 (single isomer, unassigned) [Example 476, hydrochloride] | 129 |
| Cc1ccc2c(NS(=O)(=O)Cc3ccc(C#N)cc3)c(F)ccc2c1Oc1ncccc1-c1ccnc(N[C@@H]2CNC[C@@H](F)C2)n1 (single isomer, unassigned) [Example 484, hydrochloride] | 5 |
| Cc1ccc2c(NC[C@@H](O)C3CC3)cccc2c1Oc1ncccc1-c1ccnc(N[C@H]2CCCNC2)n1 (single isomer, unassigned) [Example 488, hydrochloride] | 30 |
| Cc1ccc2c(NC[C@H](O)C3CC3)cccc2c1Oc1ncccc1-c1ccnc(N[C@H]2CCCNC2)n1 (single isomer, unassigned) [Example 489, hydrochloride] | 132 |
| Cc1nc(CS(=O)(=O)Nc2c(F)ccc3c(Oc4ncccc4-c4ccnc(N[C@@H]5CNC[C@@H](F)C5)n4)c(C)ccc23)cs1 (single isomer, unassigned) [Example 490, hydrochloride] | 4 |
| Cc1nc(CS(=O)(=O)Nc2c(F)ccc3c(Oc4ncccc4-c4ccnc(N[C@H]5CNC[C@H](F)C5)n4)c(C)ccc23)cs1 (single isomer, unassigned) [Example 491, hydrochloride] | 117 |
| CO[C@@H](CNc1cccc2c(Oc3ncccc3-c3ccnc(N[C@@H]4CNC[C@@H](F)C4)n3)c(C)ccc12)C(F)(F)F (single isomer, unassigned) [Example 493, hydrochloride] | 21 |
| CCC(F)(F)CS(=O)(=O)Nc1c(F)ccc2c(Oc3ncccc3-c3ccnc(N[C@H]4CNC[C@H](F)C4)n3)c(C)ccc12 (single isomer, unassigned) [Example 495, hydrochloride] | 469 |
